Reference: PubChem BioAssay AID2060603 (Molecular Pharmacology Branch, DTP, NCI, 2025)
pIC50: −log10 of the molar value.

Tested on: 422866-222-R5-J1-PDC spheroid viability
Assay: Anticancer human tumor 422866-222-R5-J1-PDC patient-derived pancreatic adenocarcinoma cell line growth inhibition [CLK]
Conditions: spheroids with HUVEC and MSC; for pIC50: curve of first compound; for viability, T/C: stronger effect = lower value
How it was run: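 Patient-derived tumor cells grown as complex spheroids with HUVEC endothelial cells and mesenchymal stem cells, treated with drug combinations. Concentrations descend in half-log steps from near clinical Cmax, or from 10 microM if Cmax unknown.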

[1] = second compound 0.0316 µM, first compound 0.0316 µM
[2] = second compound 0.0316 µM, first compound 0.1 µM
[3] = second compound 0.0316 µM, first compound 0.316 µM
[4] = second compound 0.0316 µM, first compound 1 µM
[5] = second compound 0.0316 µM, first compound 3.16 µM
[6] = second compound 0.0316 µM, first compound 10 µM
[7] = second compound 0.1 µM, first compound 0.0316 µM
[8] = second compound 0.1 µM, first compound 0.1 µM
[9] = second compound 0.1 µM, first compound 0.316 µM
[10] = second compound 0.1 µM, first compound 1 µM
[11] = second compound 0.1 µM, first compound 3.16 µM
[12] = second compound 0.1 µM, first compound 10 µM
[13] = second compound 0.316 µM, first compound 0.0316 µM
[14] = second compound 0.316 µM, first compound 0.1 µM
[15] = second compound 0.316 µM, first compound 0.316 µM
[16] = second compound 0.316 µM, first compound 1 µM
[17] = second compound 0.316 µM, first compound 3.16 µM
[18] = second compound 0.316 µM, first compound 10 µM
[19] = second compound 1 µM, first compound 0.0316 µM
[20] = second compound 1 µM, first compound 0.1 µM
[21] = second compound 1 µM, first compound 0.316 µM
[22] = second compound 1 µM, first compound 1 µM
[23] = second compound 1 µM, first compound 3.16 µM
[24] = second compound 1 µM, first compound 10 µM
[25] = second compound 3.16 µM, first compound 0.0316 µM
[26] = second compound 3.16 µM, first compound 0.1 µM
[27] = second compound 3.16 µM, first compound 0.316 µM
[28] = second compound 3.16 µM, first compound 1 µM
[29] = second compound 3.16 µM, first compound 3.16 µM
[30] = second compound 3.16 µM, first compound 10 µM
[31] = second compound 10 µM, first compound 0.0316 µM
[32] = second compound 10 µM, first compound 0.1 µM
[33] = second compound 10 µM, first compound 0.316 µM
[34] = second compound 10 µM, first compound 1 µM
[35] = second compound 10 µM, first compound 3.16 µM
[36] = second compound 10 µM, first compound 10 µM
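Also: spheroids exposed to agents for seven days before readout.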

CC(=O)O[C@H]1C(=O)[C@@]2(C)[C@H]([C@H](OC(=O)c3ccccc3)[C@]3(O)C[C@H](OC(=O)[C@H](O)[C@@H](NC(=O)c4ccccc4)c4ccccc4)C(C)=C1C3(C)C)[C@]1(OC(C)=O)CO[C@@H]1C[C@@H]2O + CNC(=O)c1ccc(Nc2nc(OC3CCCC3)c3c(-c4ccc5nc(C)oc5c4)c[nH]c3n2)c(OC)c1
pIC50 (second compound 0.0316 µM): < 5.00
pIC50 (second compound 0.1 µM): < 5.00
pIC50 (second compound 0.316 µM): < 5.00
pIC50 (second compound 1 µM): 7.50
pIC50 (second compound 3.16 µM): < 5.00
pIC50 (second compound 10 µM): < 5.00
viability, T/C [1]: 68.8%
viability, T/C [2]: 61.1%
viability, T/C [3]: 65.3%
viability, T/C [4]: 83.3%
viability, T/C [5]: 102%
viability, T/C [6]: 100%
viability, T/C [7]: 61%
viability, T/C [8]: 67.9%
viability, T/C [9]: 63%
viability, T/C [10]: 74.8%
viability, T/C [11]: 78.5%
viability, T/C [12]: 98.1%
viability, T/C [13]: 59.4%
viability, T/C [14]: 68%
viability, T/C [15]: 62.2%
viability, T/C [16]: 61.4%
viability, T/C [17]: 65.5%
viability, T/C [18]: 78.7%
viability, T/C [19]: 56.5%
viability, T/C [20]: 48.4%
viability, T/C [21]: 52.8%
viability, T/C [22]: 48.5%
viability, T/C [23]: 66.5%
viability, T/C [24]: 73%
viability, T/C [25]: 56.5%
viability, T/C [26]: 60.8%
viability, T/C [27]: 52.3%
viability, T/C [28]: 57.9%
viability, T/C [29]: 70.5%
viability, T/C [30]: 79%
viability, T/C [31]: 48.9%
viability, T/C [32]: 60.1%
viability, T/C [33]: 61.4%
viability, T/C [34]: 53.9%
viability, T/C [35]: 65.4%
viability, T/C [36]: 70.5%

COc1ccc([C@@H](O)c2cc(-c3ncnc4cc(N5CCOCC5)ccc34)c(F)cc2Cl)nn1 + CNC(=O)c1ccc(Nc2nc(OC3CCCC3)c3c(-c4ccc5nc(C)oc5c4)c[nH]c3n2)c(OC)c1
pIC50 (second compound 0.0316 µM): 5.54
pIC50 (second compound 0.1 µM): 5.57
pIC50 (second compound 0.316 µM): 6.11
pIC50 (second compound 1 µM): 6.21
pIC50 (second compound 3.16 µM): 6.26
pIC50 (second compound 10 µM): 5.89
viability, T/C [1]: 113%
viability, T/C [2]: 91.6%
viability, T/C [3]: 77.5%
viability, T/C [4]: 70.2%
viability, T/C [5]: 45.1%
viability, T/C [6]: 35.2%
viability, T/C [7]: 106%
viability, T/C [8]: 81.9%
viability, T/C [9]: 84.1%
viability, T/C [10]: 62.5%
viability, T/C [11]: 45.4%
viability, T/C [12]: 34.5%
viability, T/C [13]: 69.7%
viability, T/C [14]: 63.1%
viability, T/C [15]: 73.1%
viability, T/C [16]: 44.7%
viability, T/C [17]: 44.4%
viability, T/C [18]: 32.9%
viability, T/C [19]: 63.3%
viability, T/C [20]: 58%
viability, T/C [21]: 57%
viability, T/C [22]: 45.4%
viability, T/C [23]: 38.3%
viability, T/C [24]: 37.9%
viability, T/C [25]: 54.5%
viability, T/C [26]: 66.2%
viability, T/C [27]: 43.5%
viability, T/C [28]: 47.8%
viability, T/C [29]: 45.9%
viability, T/C [30]: 37.7%
viability, T/C [31]: 48.5%
viability, T/C [32]: 63.6%
viability, T/C [33]: 56.8%
viability, T/C [34]: 44.1%
viability, T/C [35]: 48.9%
viability, T/C [36]: 36.6%

COc1cccc2c1C(=O)c1c(O)c3c(c(O)c1C2=O)CC(O)(C(=O)CO)CC3OC1CC(N)C(O)C(C)O1 (stereo unspecified) + CNC(=O)c1ccc(Nc2nc(OC3CCCC3)c3c(-c4ccc5nc(C)oc5c4)c[nH]c3n2)c(OC)c1
pIC50 (second compound 0.0316 µM): 6.80
pIC50 (second compound 0.1 µM): 6.97
pIC50 (second compound 0.316 µM): 7.07
pIC50 (second compound 1 µM): 7.10
pIC50 (second compound 3.16 µM): 6.96
pIC50 (second compound 10 µM): > 7.50
viability, T/C [1]: 65%
viability, T/C [2]: 60.4%
viability, T/C [3]: 34.8%
viability, T/C [4]: 28.6%
viability, T/C [5]: 30.4%
viability, T/C [6]: 27.8%
viability, T/C [7]: 66.2%
viability, T/C [8]: 50.3%
viability, T/C [9]: 37.8%
viability, T/C [10]: 28.2%
viability, T/C [11]: 30.9%
viability, T/C [12]: 28.6%
viability, T/C [13]: 67.6%
viability, T/C [14]: 47.1%
viability, T/C [15]: 38.7%
viability, T/C [16]: 36.6%
viability, T/C [17]: 35.2%
viability, T/C [18]: 33.4%
viability, T/C [19]: 60.1%
viability, T/C [20]: 47.5%
viability, T/C [21]: 31.1%
viability, T/C [22]: 32.2%
viability, T/C [23]: 31.2%
viability, T/C [24]: 30.5%
viability, T/C [25]: 48.6%
viability, T/C [26]: 53.3%
viability, T/C [27]: 39%
viability, T/C [28]: 30.1%
viability, T/C [29]: 34.3%
viability, T/C [30]: 35.9%
viability, T/C [31]: 48.9%
viability, T/C [32]: 41.1%
viability, T/C [33]: 35.2%
viability, T/C [34]: 31.1%
viability, T/C [35]: 32%
viability, T/C [36]: 48.9%
